Reference: the NIST ThermoML archive (doi:10.1021/je020228x)
Numbers after ± are expanded uncertainties.

Tests used:
[1] = Crystal
[2] = molar enthalpy of transition or fusion; details: Crystal, DSC
[3] = molar heat capacity at constant pressure; details: 445.51 K; 101.33 kPa; Crystal; Small sample (50 mg) DSC

Row | Normal melting temperature ([1]; DTA) | molar enthalpy of transition or fusion ([2]; 383.93 K) | molar enthalpy of transition or fusion ([2]; 451.43 K) | Normal melting temperature ([1]; visual observation) | molar heat capacity at constant pressure [3] | molar enthalpy of transition or fusion ([2]; 384.43 K) | molar enthalpy of transition or fusion ([2]; 445.51 K) | SMILES
1 | 178.28 °C | 0.14 kcal/mol | 4.9 kcal/mol | – | – | – | – | Cc1nc2ccccc2[nH]1 [2-methylbenzimidazole]
2 | – | – | – | 24.84 ± 0.39 °C | – | – | – | CC(C)(C)O [2-methylpropan-2-ol]
3 | 172.36 °C | – | – | – | 49.09 J/K/mol | 0.17 kcal/mol | 4.89 kcal/mol | c1ccc2[nH]cnc2c1 [benzimidazole]
